Source: patent US7816374B2, “Method of treating neutrophil-related diseases with topical anesthetics” (Mayo Foundation for Medical Education and Research, priority 2000, dated 2010)
“And” between values parts separate entries of the source, which are not always exact repeats. Identical values can stand only once. “Also recorded” adds a separate entry of the source.

Legend:
neutrophils [1] = test: Neutrophil extracellular superoxide production (cytochrome c reduction plate assay); assay type: cell-based, human; conditions: for stimulation of neutrophils to release extracellular superoxide: stimulus screen, G-CSF 5 ug/mL, IFN-γ 100 ng/mL, 1 ug/mL, IL-8 0.5, 1 and 10 ng/mL, LTB4 100 nM and 1 uM
Method: Neutrophils were purified from heparinized venous blood of normal volunteers by sedimentation through a cushion of 1.085 gm/ml Percoll made in PIPES buffer, pH 7.4, supplemented with 50 mM NaCl, 5 mM KCl, 25 mM NaOH, and 5.4 mM glucose) and centrifuged at 2,000 rmp in a Beckman CS-6KR centrifuge for 30 minutes with no brake. Plasma, mononuclear cells, and Percoll layers were removed and the erythrocytes were lysed by osmotic shock.
The superoxide production was measured using cytochrome c reduction in a plate assay at a concentration of 50,000 neutrophils/well and was done in duplicate.
(§1) Neutrophils were isolated in a Percoll gradient to remove PBMC.
The extracellular superoxide assay (Cytochrome C method) was performed as follows: 1) The wells of a 96-well plate were blocked with 50 ul of 1% HSA for at least 2 hours at 37° C. 2) The Cytochrome C mix (#C-2506, Sigma, St. Louis, Mo.) was prepared as follows: 2.4 mgs of Cytochrome C was resuspended in 1 mL HBSS/HEPES (pH 7.4). One mL of CytoC mix was required for every 0.5×10^6 cells used in the assay. 3) The blocked cells of the 96 well plate were washed twice with 200 μL saline. 4) 4× stimulus and inhibitor stocks were prepared HBSS/HEPES. The cells were resuspended in CytoC mix to 0.5×10^6 cells/mL and kept on ice until ready for use. 5) The final volume in all wells was 200 μL: 100 μl cell/CytoC mix suspension per well (0.05×10^6 cells/well); 50 μL stimulus (if present) per well and 50 μL inhibitor (if present) per well. If stimulus and/or inhibitor was not required for a well, the volume was made up with HBSS/HEPES so that the total volume in the well was 200 μL. 6) Stimuli, inhibitors and cells were added to the wells in the following order: 1) media filler; 2) inhibitors; 3) cells; and 4) stimuli. 7) The 96 well plate was placed in a ThermoMax plate reader and the OD550 was read at 37° C. The plate was read at time 0 and then every 10 minutes for 1 hour, then every 30 minutes for 3 hours. 8) The concentration of superoxide released was calculated by using the following formula to calculate the nmol of Cytochrome C reduced: 19.1*[OD550(time x)−OD550(time 0)]/0.05=nmol Cytochrome C reduced per 1×10^6 cells=nmol superoxide released per 1×10^6 cells.

neutrophils [2] = conditions: in vitro, cited from earlier work
neutrophils [3] = test: Lactoferrin release from stimulated neutrophils (ELISA); assay type: cell-based, human; conditions: FIG. 7
Method: as §1
To measure lactoferrin, an ELSIA kit was purchased from Calbiochem (San Diego, Calif.) and the protocols and procedures were followed therein.
When neutrophils begin to invade injured tissue, feedback control of inflammation begins with degranulation of neutrophils and massive release of lactoferrin. The amount of lactoferrin released from neutrophils stimulated with PMA, TNF-α and PAF was measured.

sputum neutrophilia = test: Sputum cell counts before and after four weeks of nebulized lidocaine in patients with chronic protracted post-viral or post-irritant cough; assay type: in vivo, human; set-up: wbc before / wbc after / eos before / eos after: unit not given here
Method: Yamamoto, C. et al., Chest 112:505-510 (1997); Peleman, R. A. et al., Eur. Resp. Journal 13:839-843 (1999); Gibson, P. G. et al., Thorax 44:693-699 (1989). Induction, collection, and processing of sputum is performed according to the method of Pin and Hargreave. Briefly, if the patient is unable to spontaneously produce a 5 cc sputum sample, sputum induction is performed using ultrasonically nebulized hypertonic saline administered in progressive 2 minute increments followed by attempts to cough and produce sputum. The nebulization continues until a total of 12 minutes have elapsed or the patient produces 5 cc of sputum. The initial specimen is collected in a 50 ml conical tube, vortexed and 1 cc of the sputum is aspirated and placed on ice for cytokine analysis. The remaining volume is weighed, and mixed with equal volumes of dithiothreitol, vortexed, then rocked for 15 min at 37° C. with frequent vortexing. The specimen is analyzed for total and differential cell counting.

[4] = cited from earlier work
[5] = Patient with inflammatory bowel disease-associated severe bronchitis treated with nebulized lidocaine; assay type: in vivo, human; conditions: nebulized lidocaine 100 mg four times daily; within six weeks; one patient
Method: A patient with inflammatory bowel disease-associated severe bronchitis who had symptoms of copious sputum production (in excess of 150 mi/day), daily cough and chest tightness, and shortness of breath on exertion, who had not responded to topical or systemic glucocorticoids and multiple rounds of antibiotics over an 18 month period was treated. Lamos, J. et al., Arch Internationales De Pharmacodynamie et de Therapie 331:179-188 (1996).

[6] = Clinical trial of nebulized lidocaine in severe asthma; assay type: in vivo, human; conditions: twenty patients with severe asthma; 100 mg nebulized lidocaine x4 qd
[7] = Case report of patient with bronchitis treated with lidocaine inhalation; assay type: in vivo, human
Method: The patient was a person first seen in 1996 with a six month history of harsh cough affecting their both during the night and the day. Copious (about 50 ml per day), thick, yellow to white sputum was produced. They were often awakened at night with chest heaviness and dyspnea. […] When initially evaluated, the patient was receiving prednisone, 30 mg every other day, Salmeterol twice daily and Asthmacort four inhalations four times a day.

[8] = Serum concentration after lidocaine nebulization (PARI II device); assay type: in vivo, human; conditions: nebulization of up to 375 mg over 10 minutes; four normal subjects and four asthma patients; >1 μg/ml in only one patient out of eight
Source text: Scott, D. B. et al., Br J Anaesth. 48:899-902 (1976); Chinn, W. M. et al., Chest 71:346-348 (1977).

eosinophils = conditions: in vitro; Okada et al. 1998; cited from earlier work
[9] = six patients, after four weeks of nebulized lidocaine

Molecule: CCCCCCCCCCCCCC(=O)O[C@@H]1[C@@H](C)[C@@]2(O)[C@@H](C=C(CO)C[C@]3(O)C(=O)C(C)=C[C@@H]23)[C@@H]2C(C)(C)[C@]12OC(C)=O [PMA, phorbol-myristate acetate]
- stimulation of neutrophils to release extracellular superoxide (neutrophils [1]): stimulated; also recorded: stimulates superoxide anion very considerably

Molecule: TNF-α
- stimulation of neutrophils to release extracellular superoxide (neutrophils [1]): stimulated; also recorded: considerable superoxide anion is released

Molecule: IL-8: interleukin 8
- stimulation of neutrophils to release extracellular superoxide (neutrophils [1]): did not stimulate

Molecule: f-met-leu-phe [fMLP]
- stimulation of neutrophils to release extracellular superoxide (neutrophils [1]): stimulated

Molecule: IFN-γ: interferon gamma
- stimulation of neutrophils to release extracellular superoxide (neutrophils [1]): did not stimulate

Molecule: GM-CSF: granulocyte macrophage colony stimulating factor
- stimulation of neutrophils to release extracellular superoxide (neutrophils [1]): stimulated

Molecule: CCN(CC)CC(=O)Nc1c(C)cccc1C [lidocaine, (2-diethylamino)-N-(2,6-dimethylphenyl)acetamide]
- TNF-α stimulated neutrophil superoxide anion production (neutrophils [1]; 3 mM lidocaine, TNF-alpha stimulus, 50,000 neutrophils/well): virtually totally suppresses; also recorded: almost totally inhibited
- C5a stimulated neutrophil superoxide anion production (neutrophils [1]; C5a stimulus, FIGS. 6A and 6B): suppresses
- stimulation of neutrophils (extracellular superoxide) by stimuli (neutrophils [1]; all stimuli with the exception of PMA): inhibits the stimulation of neutrophils in a dose dependent manner
- PMA induced neutrophil superoxide anion production (neutrophils [1]; lidocaine, PMA stimulus): does not alter this production; also recorded: not inhibited
- superoxide anion production by unstimulated neutrophils (neutrophils [1]; presence and absence of 3 mM lidocaine, no stimulus): no superoxide anion is produced
- activation of neutrophils by G-CSF, TNF-α and GM-CSF (neutrophils [2]): inhibits activation
- neutrophil aggregation and degranulation (neutrophils [2]): Inhibition
- depolarization of neutrophil membrane potential, superoxide generation and chemiluminescence response in neutrophils (neutrophils [2]; concentration-dependent manner): inhibits
- lactoferrin release in PMA stimulated neutrophils (neutrophils [3]; PMA stimulus): may have an effect
- lactoferrin release in neutrophils stimulated with TNF (neutrophils [3]; TNF stimulus): significantly inhibits
- cough (sputum neutrophilia; [9]): clearing of their cough
- sputum neutrophils (sputum neutrophilia; [9]): reduction of sputum neutrophils
- pmn after (sputum neutrophilia; sputum PMN of individual patients after four weeks of nebulized lidocaine): 568,400 and 352,000 and 617,760 and 79,900 and 1,612,800 and 551,200
- pmn before (sputum neutrophilia; sputum PMN of individual patients before lidocaine treatment (baseline)): 1,032,200 and 3,569,000 and 1,566,000 and 2,772,000 and 4,093,400 and 1,256,250
- wbc after (sputum neutrophilia; sputum WBC of individual patients after four weeks of nebulized lidocaine): 1,160,000 and 1,600,000 and 2,808,000 and 85,000 and 4,480,300 and 2,120,000
- wbc before (sputum neutrophilia; sputum WBC of individual patients before lidocaine treatment (baseline)): 3,330,000 and 6,050,000 and 2,700,000 and 4,760,000 and 2,512,500
- eos after (sputum neutrophilia; sputum eosinophils of individual patients after four weeks of nebulized lidocaine): 0 (2×) and 96,000 and 2,808 and 134,400 and 42,500
- eos before (sputum neutrophilia; sputum eosinophils of individual patients before lidocaine treatment (baseline)): 0 (3×) and 484,000 and 12,798 and 1,384,200
- systemic glucocorticoid use in steroid-dependent asthma ([4]; lidocaine inhalation, most adult and pediatric patients): reduces or eliminates systemic glucocorticoids
- topical glucocorticoid use in mild to moderate asthma ([4]; nebulized lidocaine): able to replace topical glucocorticoids
- peripheral blood eosinophils when topical glucocorticoids were withdrawn ([4]; nebulized lidocaine, mild to moderate asthma): prevented the rise
- cough and chest tightness [5]: disappeared
- sputum volume [5]: diminished to zero
- patients able to discontinue or reduce the use of oral GC by 80% [6]: seventeen
- side effects [6]: minimal side effects
- patient-reported course on continued therapy ([7]; lidocaine by inhalation for the following year, occasional antibiotics): continued improvement
- sputum volume and cough ([7]; lidocaine by inhalation, over a span of three weeks, one patient): diminished strikingly
- serum concentration [8]: 1500 ng/mL
- cytokine-stimulated eosinophilopoesis and prolongation of survival, activation, respiratory burst, and degranulation of eosinophils (eosinophils): inhibit

Molecule: CCCCC/C=C\C[C@@H](O)/C=C/C=C/C=C\[C@@H](O)CCCC(=O)O [LTB4, leukotriene B4]
- stimulation of neutrophils to release extracellular superoxide (neutrophils [1]): did not stimulate

B1: G-CSF: granulocyte colony stimulating factor (protein, UniProt P09919 31-207, looked up)
Granulocyte …: TPLGPASSLPQSFLLKCLEQVRKIQGDGAALQEKLVSECATYKLCHPEELVLLGHSLGIPWAPLSSCPSQALQLAGCLSQLHSGLFLYQGLLQALEGISPELGPTLDTLQLDVADFATTIWQQMEELGMAPALQPTQGAMPAFASAFQRRAGGVLVASHLQSFLEVSYRVLRHLAQP
- stimulation of neutrophils to release extracellular superoxide (neutrophils [1]): did not stimulate

B2: C5a: component of the complement system (protein, UniProt P01031 678-751, looked up)
C5a anaphylatoxin: TLQKKIEEIAAKYKHSVVKKCCYDGACVNNDETCEQRAARISLGPRCIKAFTECCVVASQLRANISHKDMQLGR
modifications: C5a anaphylatoxin
notes: component of the complement system
- stimulation of neutrophils to release extracellular superoxide (neutrophils [1]): stimulated; also recorded: stimulates superoxide anion production
